System: 299254-011-R-J1-PDC complex spheroids viability
Experiment: Anticancer human tumor 299254-011-R-J1-PDC patient-derived melanoma cell line growth inhibition [GQUAD]
Conditions: for IC50: curve of first compound; for viability, T/C: stronger effect = lower value
Method in brief: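 Viability of tumor cells grown as complex spheroids with endothelial and stromal cells, exposed to drug combinations. Top concentration at or near clinical Cmax (else 10 microM), diluted in half-log increments.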

[1] = second compound 0.0316 µM, first compound 0.0316 µM
[2] = second compound 0.0316 µM, first compound 0.1 µM
[3] = second compound 0.0316 µM, first compound 0.316 µM
[4] = second compound 0.0316 µM, first compound 1 µM
[5] = second compound 0.0316 µM, first compound 3.16 µM
[6] = second compound 0.0316 µM, first compound 10 µM
[7] = second compound 0.1 µM, first compound 0.0316 µM
[8] = second compound 0.1 µM, first compound 0.1 µM
[9] = second compound 0.1 µM, first compound 0.316 µM
[10] = second compound 0.1 µM, first compound 1 µM
[11] = second compound 0.1 µM, first compound 3.16 µM
[12] = second compound 0.1 µM, first compound 10 µM
[13] = second compound 0.316 µM, first compound 0.0316 µM
[14] = second compound 0.316 µM, first compound 0.1 µM
[15] = second compound 0.316 µM, first compound 0.316 µM
[16] = second compound 0.316 µM, first compound 1 µM
[17] = second compound 0.316 µM, first compound 3.16 µM
[18] = second compound 0.316 µM, first compound 10 µM
[19] = second compound 1 µM, first compound 0.0316 µM
[20] = second compound 1 µM, first compound 0.1 µM
[21] = second compound 1 µM, first compound 0.316 µM
[22] = second compound 1 µM, first compound 1 µM
[23] = second compound 1 µM, first compound 3.16 µM
[24] = second compound 1 µM, first compound 10 µM
[25] = second compound 3.16 µM, first compound 0.0316 µM
[26] = second compound 3.16 µM, first compound 0.1 µM
[27] = second compound 3.16 µM, first compound 0.316 µM
[28] = second compound 3.16 µM, first compound 1 µM
[29] = second compound 3.16 µM, first compound 3.16 µM
[30] = second compound 3.16 µM, first compound 10 µM
[31] = second compound 10 µM, first compound 0.0316 µM
[32] = second compound 10 µM, first compound 0.1 µM
[33] = second compound 10 µM, first compound 0.316 µM
[34] = second compound 10 µM, first compound 1 µM
[35] = second compound 10 µM, first compound 3.16 µM
[36] = second compound 10 µM, first compound 10 µM
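Also: spheroids exposed to the agents for seven days before readout.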
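For viability, T/C in this document: percent viability relative to DMSO vehicle control wells = 100%.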

Question: With `CC1COCCN1c1cc(C2(S(C)(=N)=O)CC2)nc(-c2ccnc3[nH]ccc23)n1` (stereo unspecified) + Cc1cnc(CNC(=O)c2c(=O)c3ccc(N4CCCN(C)CC4)nc3n3c2sc2ccccc23)cn1 as the compound, how does the IC50 (second compound 0.0316 µM) read?
Answer: 1.65 µM

Question: What about the IC50 (second compound 0.1 µM) of the same compound?
Answer: 2.48 µM

Question: What about the IC50 (second compound 0.316 µM) of the same compound?
Answer: 1.68 µM

Question: And the IC50 (second compound 1 µM)?
Answer: 0.524 µM

Question: What about the IC50 (second compound 3.16 µM) of the same compound?
Answer: 0.517 µM

Question: What about the IC50 (second compound 10 µM) of the same compound?
Answer: < 0.0316 µM

Question: And the viability, T/C [1]?
Answer: 93%

Question: What about the viability, T/C [2] of the same compound?
Answer: 89.9%

Question: And the viability, T/C [3]?
Answer: 76.7%

Question: What about the viability, T/C [4] of the same compound?
Answer: 61.8%

Question: What about the viability, T/C [5] of the same compound?
Answer: 36%

Question: And the viability, T/C [6]?
Answer: 22%

Question: And the viability, T/C [7]?
Answer: 80.8%

Question: And the viability, T/C [8]?
Answer: 95.6%

Question: What about the viability, T/C [9] of the same compound?
Answer: 78.9%

Question: What about the viability, T/C [10] of the same compound?
Answer: 79.4%

Question: What about the viability, T/C [11] of the same compound?
Answer: 42.2%

Question: What about the viability, T/C [12] of the same compound?
Answer: 18.7%

Question: And the viability, T/C [13]?
Answer: 80.6%

Question: And the viability, T/C [14]?
Answer: 97.1%

Question: And the viability, T/C [15]?
Answer: 96.7%

Question: What about the viability, T/C [16] of the same compound?
Answer: 69.8%

Question: What about the viability, T/C [17] of the same compound?
Answer: 25.7%

Question: What about the viability, T/C [18] of the same compound?
Answer: 15.6%

Question: What about the viability, T/C [19] of the same compound?
Answer: 71.9%

Question: What about the viability, T/C [20] of the same compound?
Answer: 83.1%

Question: What about the viability, T/C [21] of the same compound?
Answer: 48.7%

Question: And the viability, T/C [22]?
Answer: 44.1%

Question: And the viability, T/C [23]?
Answer: 24.4%

Question: What about the viability, T/C [24] of the same compound?
Answer: 17.1%

Question: And the viability, T/C [25]?
Answer: 76.3%

Question: What about the viability, T/C [26] of the same compound?
Answer: 72.3%

Question: What about the viability, T/C [27] of the same compound?
Answer: 63.7%

Question: And the viability, T/C [28]?
Answer: 31.9%

Question: And the viability, T/C [29]?
Answer: 22.8%

Question: And the viability, T/C [30]?
Answer: 19.1%

Question: And the viability, T/C [31]?
Answer: 0.39%

Question: And the viability, T/C [32]?
Answer: 19.2%

Question: What about the viability, T/C [33] of the same compound?
Answer: 44.1%

Question: And the viability, T/C [34]?
Answer: 26.4%

Question: And the viability, T/C [35]?
Answer: 0.34%

Question: What about the viability, T/C [36] of the same compound?
Answer: 0.27%

Question: Which results are given for `O=C(c1cc(Cc2n[nH]c(=O)c3ccccc23)ccc1F)N1CCN(C(=O)C2CC2)CC1` + Cc1[nH]c2ccc(F)cc2c1-c1nc2c3cccnc3c3ncccc3c2[nH]1?
Answer: IC50 (second compound 0.0316 µM): > 10 µM; IC50 (second compound 0.1 µM): > 10 µM; IC50 (second compound 0.316 µM): > 10 µM; IC50 (second compound 1 µM): > 10 µM; IC50 (second compound 3.16 µM): > 10 µM; IC50 (second compound 10 µM): > 10 µM; viability, T/C [1]: 109%; viability, T/C [2]: 102%; viability, T/C [3]: 102%; viability, T/C [4]: 102%; viability, T/C [5]: 99%; viability, T/C [6]: 91.1%; viability, T/C [7]: 95.1%; viability, T/C [8]: 86.3%; viability, T/C [9]: 97.1%; viability, T/C [10]: 110%; viability, T/C [11]: 113%; viability, T/C [12]: 89.9%; viability, T/C [13]: 89.9%; viability, T/C [14]: 109%; viability, T/C [15]: 90.2%; viability, T/C [16]: 95.1%; viability, T/C [17]: 103%; viability, T/C [18]: 104%; viability, T/C [19]: 88.8%; viability, T/C [20]: 125%; viability, T/C [21]: 127%; viability, T/C [22]: 115%; viability, T/C [23]: 90.4%; viability, T/C [24]: 88.5%; viability, T/C [25]: 91.3%; viability, T/C [26]: 95.7%; viability, T/C [27]: 93.2%; viability, T/C [28]: 87.5%; viability, T/C [29]: 104%; viability, T/C [30]: 85%; viability, T/C [31]: 91.6%; viability, T/C [32]: 97.2%; viability, T/C [33]: 106%; viability, T/C [34]: 104%; viability, T/C [35]: 92.5%; viability, T/C [36]: 93%

Question: Which IC50 (second compound 0.0316 µM) does the source give for `CC1COCCN1c1cc(C2(S(C)(=N)=O)CC2)nc(-c2ccnc3[nH]ccc23)n1` (stereo unspecified) + CN(C)c1ccc(Nc2c3ccc(NC(=O)CCN4CCCC4)cc3nc3cc(NC(=O)CCN4CCCC4)ccc23)cc1 here?
Answer: 6.24 µM

Question: And the IC50 (second compound 0.1 µM)?
Answer: 3.93 µM

Question: What about the IC50 (second compound 0.316 µM) of the same compound?
Answer: 5.06 µM

Question: And the IC50 (second compound 1 µM)?
Answer: 4.48 µM

Question: What about the IC50 (second compound 3.16 µM) of the same compound?
Answer: 3.63 µM

Question: What about the IC50 (second compound 10 µM) of the same compound?
Answer: 2.91 µM

Question: And the viability, T/C [1]?
Answer: 99.6%

Question: And the viability, T/C [2]?
Answer: 106%

Question: And the viability, T/C [3]?
Answer: 98%

Question: And the viability, T/C [4]?
Answer: 93.1%

Question: What about the viability, T/C [5] of the same compound?
Answer: 75.6%

Question: What about the viability, T/C [6] of the same compound?
Answer: 32.2%

Question: And the viability, T/C [7]?
Answer: 116%

Question: And the viability, T/C [8]?
Answer: 128%

Question: And the viability, T/C [9]?
Answer: 101%

Question: What about the viability, T/C [10] of the same compound?
Answer: 77.5%

Question: And the viability, T/C [11]?
Answer: 59.7%

Question: What about the viability, T/C [12] of the same compound?
Answer: 27.9%

Question: And the viability, T/C [13]?
Answer: 105%

Question: And the viability, T/C [14]?
Answer: 98.2%

Question: And the viability, T/C [15]?
Answer: 131%

Question: What about the viability, T/C [16] of the same compound?
Answer: 82.4%

Question: And the viability, T/C [17]?
Answer: 71.4%

Question: And the viability, T/C [18]?
Answer: 23.5%

Question: What about the viability, T/C [19] of the same compound?
Answer: 114%

Question: What about the viability, T/C [20] of the same compound?
Answer: 95.3%

Question: And the viability, T/C [21]?
Answer: 85%

Question: What about the viability, T/C [22] of the same compound?
Answer: 78%

Question: And the viability, T/C [23]?
Answer: 65.5%

Question: And the viability, T/C [24]?
Answer: 27.9%

Question: And the viability, T/C [25]?
Answer: 125%

Question: And the viability, T/C [26]?
Answer: 100%

Question: What about the viability, T/C [27] of the same compound?
Answer: 87.3%

Question: And the viability, T/C [28]?
Answer: 80.4%

Question: What about the viability, T/C [29] of the same compound?
Answer: 53.2%

Question: What about the viability, T/C [30] of the same compound?
Answer: 28.3%

Question: What about the viability, T/C [31] of the same compound?
Answer: 105%

Question: What about the viability, T/C [32] of the same compound?
Answer: 117%

Question: And the viability, T/C [33]?
Answer: 101%

Question: And the viability, T/C [34]?
Answer: 98%

Question: What about the viability, T/C [35] of the same compound?
Answer: 46.1%

Question: What about the viability, T/C [36] of the same compound?
Answer: 32%

From PubChem BioAssay AID2060513 (Molecular Pharmacology Branch, DTP, NCI, 2025)
